Measurements taken from patent US20100040568A1, “Steroidal compounds as melanogenesis modifiers and uses thereof” (SkinMedica, Inc., priority 2008, published 2010).

Key:
[1] = tested on: Lamp-1 (lysome-associated membrane protein 1); test: Level of Lamp-1 in melan-a cells; format: cell-based, murine
Experimental: Melan-a cells were incubated with various concentrations of conessine for 72 hours. Cell lysates were prepared and separated by 7.5% sodium dodecyl sulfate-polyacrylamide gel and transferred to Immobilon-P membranes. Tyrosinase gene family proteins were detected with antibodies against each protein. […] The effect of conessine on the level of Lamp-1 in melan-a cells was examined. A common lineage among the melanosomes and lysosomes is well accepted. Lamp-1 (lysome-associated membrane protein 1) is a lysosome marker. […] Thus, conessine treatment likely results in decreased degradation of both Lamp-1 and tyrosinase gene family proteins (FIG. 12d), thus unexpectedly acting as a melanogenesis […].

melan-a cells = test: Melanin assay in cultured murine melanocytes (melan-a); format: cell-based; conditions: 72 hours
Experimental: The Spectrum Collection library consisting of 2000 drug compounds or natural products was screened to identify novel pigmentation inhibitors or stimulators in cultured murine melanocytes (melan-a). Compounds were dissolved in dimethylsulfoxide (DMSO) to a final concentration of 10 mM. Screening was performed with cultured melanocytes in 24-well plates followed by melanin assay (see below). A minimum change of 50% in melanin formation was established as significant for a pigmentation inhibitor or stimulator. DMSO was used as a negative control and the widely used depigmenting agent, hydroquinone, was used as a positive control on every plate. […] Melan-a cells were plated at 5×10^4 cells per well in 1 ml of culture media in 24-well plates the day before adding the library compounds. All compounds were added at the indicated final concentrations. Cells were harvested after 72 hours of incubation, and melanin assay was performed. For the primary and secondary screening, cells were harvested and dissolved in 200 μl of 2N NaOH in 20% DMSO at 70° C. A 180-μl aliquot of the resulting solution was measured for absorbance at 490 nm. Cells are harvested in extraction buffer (1% Triton X-100, 50 mM Tris, 2 mM EDTA, 150 mM NaCl, pH 7.5) containing a complete protease inhibitor cocktail (Roche). The lysates were centrifuged at 14,000 rpm for 10 minutes at 4° C. BCA protein assay kit (Pierce) was used to measure the protein concentrations of the supernatants, and bovine serum albumin was used as a standard. […] A 180-μl aliquot of the resulting solution was measured for absorbance at 490 nm. The melanin contents were normalized to the total amount of protein. The IC50 value for inhibition of cellular melanin synthesis for conessine was determined by culturing melan-a cells with various concentrations of conessine for 72 hours. Briefly, melan-a cells were plated at 5×10^4 cells per well in 1 ml of culture media in 24-well plates the day before adding conessine. Conessine was added at the indicated final concentrations. DMSO was used as a negative control. Cells were harvested after 72 hours of incubation, and spectrophotometric melanin assay was performed on cell pellets. The melanin contents were normalized to the total amount of protein. Cell viability was determined by using the CellTiter 96 aqueous nonradioactive cell proliferation assay. […] Licorice extract was tested under similar conditions as conessine for its ability to decrease melanin synthesis in melan-a cells (FIG. 11c). Melan-a cells were plated at 5×10^4 cells per well in 1 ml of culture media in 24-well plates the day before adding Licorice extract. 70% ethanol was used as control and the Licorice extract was diluted in cell culture media at the indicated concentrations. […] Cells were harvested after 72 hours of incubation, and spectrophotometric melanin assay was performed on cell pellets. The melanin contents were normalized to the total amount of protein. Cell viability was determined by using the CellTiter 96 aqueous nonradioactive cell proliferation assay.

tyrosinase = molecular target: T1, tyrosinase (Mus musculus, UniProt P11344); test: Tyrosinase activity assay on melan-a cell lysates; format: biochemical, murine; conditions: for direct inhibition of tyrosinase enzymatic activity: melan-a cell lysates (10 μg) pre-incubated with conessine 10 μM for 30 minutes
T1 construct: endogenous in cells; host or cells: melan-a cells (murine melanocytes), cell lysate
T1 sequence (P11344 19-533): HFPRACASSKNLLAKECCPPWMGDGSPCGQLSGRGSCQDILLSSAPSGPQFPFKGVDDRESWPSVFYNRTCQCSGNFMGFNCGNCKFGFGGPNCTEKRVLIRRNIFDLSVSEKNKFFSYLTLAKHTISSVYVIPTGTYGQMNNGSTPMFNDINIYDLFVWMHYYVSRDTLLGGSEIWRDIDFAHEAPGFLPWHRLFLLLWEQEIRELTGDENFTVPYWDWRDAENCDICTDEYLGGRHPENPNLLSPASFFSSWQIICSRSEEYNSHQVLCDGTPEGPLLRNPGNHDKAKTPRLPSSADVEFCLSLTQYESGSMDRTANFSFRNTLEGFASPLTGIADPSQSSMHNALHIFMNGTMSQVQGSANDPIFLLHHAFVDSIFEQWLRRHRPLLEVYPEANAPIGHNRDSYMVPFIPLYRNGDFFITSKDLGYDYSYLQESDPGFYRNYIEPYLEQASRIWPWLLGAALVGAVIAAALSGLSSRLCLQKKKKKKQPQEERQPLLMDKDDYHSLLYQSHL
Experimental: The effect of conessine on tyrosinase activity was studied in vitro using melan-a cell lysates.
In one example, melan-a cell lysates (10 μg) were pre-incubated with either diluent, conessine (10 μM) or phenylthiourea (PTU, 300 μM, a known tyrosinase inhibitor) for 30 minutes at room temperature. Tyrosinase activity assay was performed in triplicate on melan-a cell lysates as previously described (Orlow et al. 1990).

MEL-A = test: MTT cell viability of treated MelanoDerm tissue; format: cell-based, human; conditions: 0.036% topical
Experimental: Conessine and Licorice extract were dissolved in 30% ethanol: 70% propylene glycol (PEG) to a final concentration of 0.036% (0.36 mg/ml). A 25 μl aliquot of each compound was applied topically to the Asian MelanoDerm™ tissue (MEL-A) on Days 0, 1, 3, 6, 8, 10 and 13. The MelanoDerm™ tissues were fed every other day with 5 ml fresh NMM-113. Prior to each application, the tissues were washed with 1 ml PBS to remove any residual test compound. Tissues were fixed on Days 13 and 16 for microscopic analysis and histological evaluation. In addition, duplicate tissues were frozen on Days 13 and 16 for melanin assay. 30% ethanol: 70% PEG was used as negative control. Cell viability was measured in accordance with the manufacturer's instructions using the MTT assay kit (MatTek Corp., Ashland, Mass. 01721). One MEL-A tissue from each condition was harvested on day 2 and 7, and MTT assay was performed.

With `CC1C2CCC3C4CC=C5CC(N(C)C)CCC5(C)C4CCC32CN1C` (stereo not drawn) [Compound 1, Conessine] the “cellular level of Lamp-1” value [1] was “increases cellular level of Lamp-1”, the “effect on melanin synthesis in melan-a cells” value (melan-a cells; indicated concentrations) was “significantly inhibited melanogenesis in a dose-dependent manner” and the IC50 (melan-a cells; Mus musculus, melan-a cells, melanin normalized to protein, read-out: IC50 value for inhibition of cellular melanin synthesis) was about 2500 nM. For the same compound, the “% of control remaining @ 1 μM” value (melan-a cells; melanin, melan-a cells, 1 μM) was 73.3 % of control, the “% of control remaining @ 5 μM” value (melan-a cells; melanin, melan-a cells, 5 μM) was 32.2 % of control and the “tyrosinase activity of lysates of pre-treated cells” value (tyrosinase; cells pre-incubated with conessine for 72 hrs before harvesting) was “No obvious difference in tyrosinase activity”. For the same compound, the “direct inhibition of tyrosinase enzymatic activity” value (tyrosinase; listed as Conessine) was “did not directly inhibit tyrosinase activity”, the “direct inhibition of tyrosinase enzymatic activity” value (tyrosinase; listed as conessine) was “does not directly inhibit tyrosinase enzymatic activity” and the “cytotoxicity of treated tissue” value (MEL-A) was “no detectable cytotoxicity”.
